{"source": "ChEMBL document CHEMBL6177958", "about": "“6,7-Dimethoxy-2-methyl-4-substituted quinazolines: Design, synthesis, EGFR inhibitory activity, in vitro cytotoxicity, and in silico studies” (Eur J Med Chem, 2025)", "format_in_all_cases": "functional", "key": {"HCT-116 [1]": {"test_system": "HCT-116", "assay": "Cell cycle arrest in human HCT-116 cells assessed as accumulation of cells at S phase by flow cytometry (reference value: 39.26%)"}, "HCT-116 [2]": {"test_system": "HCT-116", "assay": "Cell cycle arrest in human HCT-116 cells assessed as accumulation of cells at G0-G1 phase by flow cytometry (reference value: 46.33%)"}, "HCT-116 [3]": {"test_system": "HCT-116", "assay": "Induction of apoptosis in human HCT-116 cells assessed as total apoptotic cells measured after 24 hrs by PI based flow cytometry (reference value: 2.38%)"}, "HCT-116 [4]": {"test_system": "HCT-116", "assay": "Induction of apoptosis in human HCT-116 cells assessed as early apoptotic cells measured after 24 hrs by PI based flow cytometry (reference value: 0.43%)"}, "HCT-116 [5]": {"test_system": "HCT-116", "assay": "Induction of apoptosis in human HCT-116 cells assessed as late apoptotic cells measured after 24 hrs by PI based flow cytometry (reference value: […])"}, "HCT-116 [6]": {"test_system": "HCT-116", "assay": "Induction of apoptosis in human HCT-116 cells assessed as necrotic apoptotic cells measured after 24 hrs by PI based flow cytometry (reference value: 1.84%)"}, "HCT-116 [7]": {"test_system": "HCT-116", "assay": "Cell cycle arrest in human HCT-116 cells assessed as accumulation of cells at G2-M phase by flow cytometry (reference value: 14.41%)"}}, "data": [{"smiles": "COc1cc2nc(C)nc(N/N=C/c3cc(CN4CCN(C)CC4)c(O)c(OC)c3)c2cc1OC", "values": [{"measurement": "Activity", "setting": "HCT-116 [1]", "result": 49.11, "unit": "%"}, {"measurement": "Activity", "setting": "HCT-116 [2]", "result": 42.18, "unit": "%"}, {"measurement": "Activity", "setting": "HCT-116 [3]", "result": 39.88, "unit": "%"}, {"measurement": "Activity", "setting": "HCT-116 [4]", "result": 26.13, "unit": "%"}, {"measurement": "Activity", "setting": "HCT-116 [5]", "result": 11.27, "unit": "%"}, {"measurement": "Activity", "setting": "HCT-116 [6]", "result": 2.48, "unit": "%"}, {"measurement": "Activity", "setting": "HCT-116 [7]", "result": 8.71, "unit": "%"}]}]}
